Measured values taken from patent publication US7078382B1, “Modulation of eNOS activity and therapeutic uses thereof” (Genentech, Inc., priority 1999, dated 2006).
pIC50: −log10 of the molar value. Entries after “also recorded” stand apart in the source; their conditions may differ. Each block holds one molecule with its values, some of them ahead of it.

Columns and labels:
eNOS expression = eNOS expression by Western blot in ACE cells; type: cell-based, bovine; conditions: for eNOS expression, time course: 0-5 days, VEGF alone or co-incubated with L-NAME (2 mM) or SNAP; for effect of signalling inhibitors on VEGF-induced eNOS expression: with 500 pM rhVEGF; for effect on VEGF-induced eNOS expression, KDR tyrosine kinase inhibitor: co-incubated with 500 pM rhVEGF; for eNOS expression with angiogenic factors / eNOS expression with KDR-specific VEGF variants: 500 pM; for eNOS expression with VEGF forms and receptor-selective variants: equal concentrations, two days
Procedure: At the end of incubation, total cell lysates were prepared, and eNOS protein levels were determined by Western blot analysis.
Bovine adrenal cortex capillary endothelial cells (ACE) were prepared and maintained as previously described (Ferrara et.al., 1989 Biochem. Biophys. Res. Commun. 161:851–858). Briefly, cells were plated onto 6-well tissue culture plates (Costar) and grown in low glucose Dulbecco's modified Eagle's medium, supplemented with 2 mM […] (Life Technologies), 10% bovine calf serum (HyClone Lab., Inc.) and 100 μg/ml Penicillin/Streptomycin (Life Technologies). ACE cells were used between passages 4 and 8.
Medium was changed every 24 hours.
The methods for cell lysis and Western blot (WB) have been described in Shen et al., 1998 J. Biol. Chem. 273:29979–29985. A monoclonal anti-eNOS antibody was used at 1:2500 to probe eNOS protein. A secondary antibody conjugated with horseradish peroxidase (1:2500) (Zymed) and an enhanced chemiluminescent kit (Amershal Pharmacia Biotech) were used to visualize the eNOS immunoreactive bands. Multiple exposures of films were obtained to determine the optical exposure time. The protein bands were scanned by a densitometer and the relative intensities were quantified using IMAGEQUANT® software (Molecular Dynamics).
(§1) Confluent ACE cells were incubated with 500 pM rhVEGF. Total cell lysates were prepared as described above. Equal amounts of protein were denatured under reducing conditions and separated in a 10% Novex mini gel and transferred to PVDF membrane. eNOS protein signals were visualized by ECL and quantified using densitometry.

Flt-1 receptor [1] = experiment: Flt-1 receptor binding ELISA (inhibition of biotinylated native VEGF binding to Flt-IgG); conditions: first figure of the cell, read-out: Binding to FLT-1 Receptor, concentration at midpoint absorbance
Sequence of Flt-1 receptor (P17948 27-327 limits assumed): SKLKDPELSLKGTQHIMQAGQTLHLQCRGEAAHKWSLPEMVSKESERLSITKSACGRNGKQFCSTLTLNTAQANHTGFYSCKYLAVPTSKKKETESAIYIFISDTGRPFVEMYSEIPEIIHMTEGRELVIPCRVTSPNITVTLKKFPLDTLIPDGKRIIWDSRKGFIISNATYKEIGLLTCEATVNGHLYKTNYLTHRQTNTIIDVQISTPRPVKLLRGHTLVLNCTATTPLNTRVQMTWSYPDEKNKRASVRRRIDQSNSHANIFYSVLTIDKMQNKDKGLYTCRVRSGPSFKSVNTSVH
Procedure: Receptor binding assays were performed in 96-well immunoplates (Maxisorp, Nunc-Immunoplate, Nalge Nunc International, Rochester, N.Y.). Each well was coated with 100 μl of a solution containing 2 μg/ml of rabbit F(ab′)2 to human IgG Fc (Jackson ImmunoResearch, West Grove, Pa.) in 50 mM carbonate buffer at pH 9.6 and incubated at 4° C. overnight. The supernatant was then discarded, the wells were washed three times in washing buffer (0.05% Tween 20 in PBS), and the plate was blocked (150 μl per well) with block buffer (0.5% BSA, 0.01% thimerosal in PBS) at room temperature for one hour. The supernatant was discarded, and the wells were washed.
The wells were filled with 100 μl of a solution containing Flt-IgG (a chimeric Flt-human Fc molecule) at 50 ng/ml in assay buffer (0.5% BSA, 0.05% Tween 20 in PBS). The wells were incubated at room temperature for 1 hour and then washed three times in wash buffer (0.05% Tween 20 in PBS).
Aliquots of the mixture (100 μl) were added to the precoated microtiter wells and the plate was incubated for 2 hours at room temperature. […] Absorbance was read at 450 nm on a Vmax plate reader (Molecular Devices, Menlo Park, Calif.).
Titration curves were fit with a four-parameter nonlinear regression curve-fitting program (KaleidaGraph, Synergy Software, Reading, Pa.).

eNOS activity = conditions: ACE cells
Procedure: as §1

PAE/FLT-1 cells = conditions: 500 pM rhVEGF, 2 days
Procedure: Porcine aorta endothelial (PAE) cells, and receptor transfected PAE cells (PAE/KDR and PAE/FLT-1) were provided by Napoleone Ferrara (Genentech, Inc.) and cultured in Ham's F-12 medium containing 10% FBS (for PAE), or plus 250 μg/ml G480 (for PAE/KDR and PAE/FLT-1).
PAE, PAE/KDR and PAE/Flt-1 cells were incubated with or without 500 pM rhVEGF for 2 days. eNOS was detected as described above for Example 1. Other materials and methods used in this study were as described above for Example 1.

PKC = conditions: ACE cells, rhVEGF 500 pM, 10 minutes
Procedure: Cytosolic and membrane fractions were prepared to investigate the re-distribution or PKC isoforms. […] (See FIG. 5A).

KDR receptor = biological target: T1, KDR receptor (Homo sapiens, UniProt P35968); experiment: RIA binding assay, KDR receptor
T1 construct: host or cells: CHO cells
T1 sequence (P35968 20-1356): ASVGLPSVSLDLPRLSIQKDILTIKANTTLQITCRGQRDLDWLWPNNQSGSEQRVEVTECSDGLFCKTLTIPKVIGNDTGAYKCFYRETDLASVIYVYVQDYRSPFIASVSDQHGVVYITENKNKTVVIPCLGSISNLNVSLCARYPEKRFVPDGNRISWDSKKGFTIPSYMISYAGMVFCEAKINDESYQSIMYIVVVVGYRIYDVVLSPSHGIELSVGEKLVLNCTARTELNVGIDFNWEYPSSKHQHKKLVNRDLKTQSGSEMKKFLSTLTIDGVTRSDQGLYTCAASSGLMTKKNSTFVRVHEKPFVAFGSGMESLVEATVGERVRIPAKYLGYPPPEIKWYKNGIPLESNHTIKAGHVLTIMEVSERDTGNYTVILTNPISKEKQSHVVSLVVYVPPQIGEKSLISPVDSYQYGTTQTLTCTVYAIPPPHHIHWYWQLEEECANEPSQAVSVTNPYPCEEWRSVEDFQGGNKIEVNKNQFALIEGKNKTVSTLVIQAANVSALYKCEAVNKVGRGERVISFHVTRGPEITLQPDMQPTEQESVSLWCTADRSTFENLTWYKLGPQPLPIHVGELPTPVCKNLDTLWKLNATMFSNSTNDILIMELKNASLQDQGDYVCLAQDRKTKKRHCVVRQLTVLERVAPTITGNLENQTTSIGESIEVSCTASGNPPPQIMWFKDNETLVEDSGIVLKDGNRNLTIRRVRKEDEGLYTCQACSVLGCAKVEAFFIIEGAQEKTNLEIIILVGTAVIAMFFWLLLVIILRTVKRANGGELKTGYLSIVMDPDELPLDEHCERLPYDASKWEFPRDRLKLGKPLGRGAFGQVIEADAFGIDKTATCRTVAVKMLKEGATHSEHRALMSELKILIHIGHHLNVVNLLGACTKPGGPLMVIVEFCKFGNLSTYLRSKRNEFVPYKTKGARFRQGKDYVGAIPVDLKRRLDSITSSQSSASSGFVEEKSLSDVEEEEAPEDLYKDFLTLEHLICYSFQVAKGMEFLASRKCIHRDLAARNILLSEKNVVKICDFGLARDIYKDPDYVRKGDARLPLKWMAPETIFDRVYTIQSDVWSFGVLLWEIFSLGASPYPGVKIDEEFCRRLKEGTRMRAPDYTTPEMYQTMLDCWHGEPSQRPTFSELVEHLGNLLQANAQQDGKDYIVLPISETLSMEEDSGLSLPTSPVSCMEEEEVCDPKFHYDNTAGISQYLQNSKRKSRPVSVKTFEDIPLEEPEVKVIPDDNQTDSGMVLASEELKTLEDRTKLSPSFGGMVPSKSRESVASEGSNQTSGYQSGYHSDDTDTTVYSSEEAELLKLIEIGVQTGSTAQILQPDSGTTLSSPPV

Flt-1 receptor [2] = biological target: Flt-1 receptor (Homo sapiens, UniProt P17948); experiment: RIA binding assay, FLT-1 receptor
Sequence of Flt-1 receptor (Homo sapiens, UniProt P17948) (P17948 27-1338): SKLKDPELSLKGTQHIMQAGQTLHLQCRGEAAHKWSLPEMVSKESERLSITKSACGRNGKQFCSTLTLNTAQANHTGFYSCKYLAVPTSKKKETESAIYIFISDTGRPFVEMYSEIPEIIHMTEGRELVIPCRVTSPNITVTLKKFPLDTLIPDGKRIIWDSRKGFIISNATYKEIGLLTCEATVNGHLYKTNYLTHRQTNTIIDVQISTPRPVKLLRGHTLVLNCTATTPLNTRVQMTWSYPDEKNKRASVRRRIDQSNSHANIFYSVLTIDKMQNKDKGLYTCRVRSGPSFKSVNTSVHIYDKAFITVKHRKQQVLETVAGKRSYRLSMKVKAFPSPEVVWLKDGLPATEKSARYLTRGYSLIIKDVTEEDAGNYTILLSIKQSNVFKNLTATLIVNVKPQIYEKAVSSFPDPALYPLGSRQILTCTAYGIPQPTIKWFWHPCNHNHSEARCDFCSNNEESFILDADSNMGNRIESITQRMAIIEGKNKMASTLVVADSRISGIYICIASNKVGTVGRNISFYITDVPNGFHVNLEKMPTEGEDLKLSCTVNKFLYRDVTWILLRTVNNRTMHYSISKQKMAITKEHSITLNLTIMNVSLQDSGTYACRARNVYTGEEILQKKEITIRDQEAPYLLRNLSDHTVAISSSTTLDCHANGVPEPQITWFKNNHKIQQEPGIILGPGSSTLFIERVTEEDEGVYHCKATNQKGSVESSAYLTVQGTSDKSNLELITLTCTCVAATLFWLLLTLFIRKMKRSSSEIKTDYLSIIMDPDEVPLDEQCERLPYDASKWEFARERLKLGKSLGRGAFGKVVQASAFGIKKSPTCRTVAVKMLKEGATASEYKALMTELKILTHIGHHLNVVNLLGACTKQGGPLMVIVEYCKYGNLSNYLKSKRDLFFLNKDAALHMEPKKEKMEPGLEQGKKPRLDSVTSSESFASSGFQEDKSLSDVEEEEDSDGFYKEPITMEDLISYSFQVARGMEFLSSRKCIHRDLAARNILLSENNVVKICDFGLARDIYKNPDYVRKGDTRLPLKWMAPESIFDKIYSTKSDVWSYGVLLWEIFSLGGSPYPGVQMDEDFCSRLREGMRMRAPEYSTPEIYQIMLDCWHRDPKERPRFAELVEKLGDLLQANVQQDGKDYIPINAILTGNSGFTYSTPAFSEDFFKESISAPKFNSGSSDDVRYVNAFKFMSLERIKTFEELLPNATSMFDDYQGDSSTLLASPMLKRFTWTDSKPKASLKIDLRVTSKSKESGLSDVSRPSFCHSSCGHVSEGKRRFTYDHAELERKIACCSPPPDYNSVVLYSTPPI
Text: The results are shown below in Table 6.

[3] = coronary artery disease patients, intracoronary or intravenous infusion at 0.05 microgram/Kg body weight/minute
Text: In one aspect, the invention provides methods for treating a NO associated disorder or condition such as hypertension, diabetes, thrombosis, angina, heart failure or atherosclerosis.

[4] = angina patients, prolonged time point, early results
Text: Luscher TF (1992) Br. J. Clin. Pharmacol. 34 Suppl. 1:29S–35S.

eNOS = experiment: Association of proteins with eNOS (immunoprecipitation, Western blot) in endothelial cells; conditions: VEGF 1-60 minutes

Molecule: COC(=O)[C@@H](N)CCCNC(=N)N[N+](=O)[O-] [L-NAME, L-N^G-Nitroarginine methyl ester, reference compound]
eNOS expression, time course (eNOS expression): sustained increase

Molecule: CCCCCCCCCCCCCC(=O)O[C@@H]1[C@@H](C)[C@@]2(O)[C@@H](C=C(CO)C[C@]3(O)C(=O)C(C)=C[C@@H]23)[C@@H]2C(C)(C)[C@]12OC(C)=O [PMA, phorbol 12-myristate 13-acetate, reference compound]
eNOS levels after PKC activation (eNOS expression): time-dependent (FIG. 5C) and dose-dependent (data not shown) increase in eNOS levels; also recorded: increased eNOS levels

Molecule: Cc1ccc(-c2nn(C(C)(C)C)c3ncnc(N)c23)cc1 [PP1, reference compound]
effect of signalling inhibitors on VEGF-induced eNOS expression (eNOS expression; 2 days): also blocked eNOS expression

Molecule: CC(C)c1cc(/C=C(\C#N)C(=O)NCCCc2ccccc2)cc(C(C)C)c1O [SU1498, reference compound]
effect on VEGF-induced eNOS up-regulation at high concentration (eNOS expression; 100 μM, 500 pM rhVEGF, 2 days): completely blocked | effect on VEGF-induced eNOS expression, KDR tyrosine kinase inhibitor (eNOS expression; 2 days): dose-dependent prevention | effect on VEGF-induced eNOS expression, KDR tyrosine kinase inhibitor (eNOS expression; 2 days, listed as SU-149 g): dose dependent inhibition

Molecule: COC[C@H]1OC(=O)c2coc3c2[C@@]1(C)C1=C(C3=O)[C@@H]2CCC(=O)[C@@]2(C)C[C@H]1OC(C)=O [Wortmannin, wortmannin, reference compound]
effect of signalling inhibitors on VEGF-induced eNOS expression (eNOS expression; 2 days): no significant effect

Molecule: O=c1c(-c2ccc(O)cc2)coc2cc(O)cc(O)c12 [genistein, reference compound]
effect of signalling inhibitors on VEGF-induced eNOS expression (eNOS expression; 2 days): blocked VEGF-induced eNOS expression

Molecule: CO[C@H]1[C@@H](OC)C[C@H](C)[C@@H](OC)C2=CC(=O)C=C(NC(=O)/C(C)=C/C=C\[C@H](OC)[C@@H](OC(N)=O)/C(C)=C/[C@@H]1C)C2=O [herbimycin A, reference compound]
effect of signalling inhibitors on VEGF-induced eNOS expression (eNOS expression; 2 days): blocked VEGF-induced eNOS expression

Molecule: EGF: recombinant human epidermal growth factor (NSDSECPLSHDGYCLHDGVCMYIEALDKYACNCVVGYIGERCQYRDLKWWELR; Epidermal growth factor; UniProt P01133 971-1023, looked up)
eNOS expression with angiogenic factors (eNOS expression; 2 days): no significant effect

Molecule: FGF: Recombinant human fibroblast growth factor (FGF) basic
eNOS expression with angiogenic factors (eNOS expression; 2 days): no significant effect

Molecule: HGF: heterodimeric form of recombinant human hepatocyte growth factor
eNOS expression with angiogenic factors (eNOS expression; 2 days): capable of increasing eNOS expression

Molecule: LK-VRB-2f: full length 1-165 VEGF variant, D63S/G65M/L66R
eNOS expression with KDR-specific VEGF variants (eNOS expression; 2 days): markedly up-regulated eNOS expression

pIC50 (Flt-1 receptor [1]): < 6.40
Molecule: LK-VRB-2s*: VEGF (1-109) variant, D63S/G65M/L66R
eNOS expression with KDR-specific VEGF variants (eNOS expression; 2 days): markedly up-regulated eNOS expression

Molecule: TGF-beta1: recombinant human transforming growth factor
eNOS expression with angiogenic factors (eNOS expression; 2 days): reduced endogenous eNOS expression

Molecule: VEGF
eNOS expression, time course (eNOS expression): time-dependent but transient increase; also recorded: time-dependent increase in eNOS expression | eNOS expression with KDR-specific VEGF variants (eNOS expression; 2 days): induced a similar degree of eNOS expression | peak eNOS expression (eNOS expression; 2 days (48 hours) post exposure to 500 pM VEGF): 5.5 fold | concentration giving maximal increase of eNOS (eNOS expression; dose-dependent up-regulation): 500 pM | eNOS expression with VEGF forms and receptor-selective variants (eNOS expression; listed as VEGF165): induced a similar degree of eNOS expression; also recorded: induce eNOS up-regulation | eNOS activity, acute treatment (eNOS activity; 0-60 min): time-dependent increase | eNOS activity in treated cells versus untreated control cells (eNOS activity; 2 days VEGF): about 5 fold | eNOS up-regulation in PAE/FLT-1 cells (PAE/FLT-1 cells): not in FLT-1 transfected PAE (PAE/FLT) cells; also recorded: not in FLT-1 containing PAE cells | re-distribution of PKC isoforms from cytosolic to membrane fractions (PKC): rapid re-distribution | Relative Binding Affinity KDR Receptor (KDR receptor): 1 (97 pM) | Relative Binding Affinity FLT-1 Receptor (Flt-1 receptor [2]; relative to Native VEGF 165): 1 | pIC50 (Flt-1 receptor [2]; value in brackets, read-out: Binding affinity FLT-1 Receptor): 10.43 | mean arterial pressure [3]: dose-rate dependent reduction in mean arterial pressure | angina class, angina frequency, treadmill times versus placebo [4]: trends of improvement | eNOS association levels of caveolin and PLC-γ (eNOS): significantly reduces; also recorded: induces dissociation | levels of Hsp90 and Hsp70 associated with eNOS (eNOS): increase the levels of Hsp90 and Hsp70 associated with eNOS; also recorded: increase association

Molecule: VEGF110: heparin binding domain-deficient variant made from VEGF165 by limited proteolytic digestion with plasmin
eNOS expression with KDR-specific VEGF variants (eNOS expression; 2 days): induced a similar degree of eNOS expression | eNOS expression with VEGF forms and receptor-selective variants (eNOS expression): induced a similar degree of eNOS expression; also recorded: induce eNOS up-regulation
